Data: PMC11611271, “Rapid prediction of key residues for foldability by machine learning model enables the design of highly functional libraries with hyperstable constrained peptide scaffolds” (PLOS Computational Biology, 2024)

Assays:
[1] = tested on: CD8α/β; assay: phage spot ELISA on CD8α/β; format: binding; settings: for S/N: phage spot ELISA signal/noise; for ELISA: phage spot ELISA signal
From the text: (§1) To determine the performance of the libraries for ligand discovery we chose a panel of eight protein targets, which have no structural homology and a wide mass range (Fig 7C). We screened these eight targets with solution panning strategy and two additional plate panning for CD8α/β and CD28, thus ten panning campaigns in total. We consider clones showing spot phage ELISA signal > 0.3 and signal/noise ratio > 2 as positive hits. At least one binding hit was discovered for nine out of the ten panning campaigns, surpassing the success rate of the best DCP scaffolds reported previously. We also obtained the NGS data for these screening and the ranking of clones for their enrichment along the rounds of screening was analyzed and considered the top-ranking clones as potential hits. Based on their sequence diversity we selected 16 potential hits spanning five protein targets for peptide synthesis in their linear form. Seven of these are hits with positive phage ELISA signal and nine were selected based on NGS ranking without spot ELISA available. Subsequently, we conducted in vitro folding experiments on these peptides in various buffers. We observed a strong propensity for spontaneous folding regardless of the buffer condition. All HCP hits tested successfully folded into three-disulfide-containing product within two days in a universal buffer system (PBS, pH 7.4, 50% DMSO) without the need for a redox pair, as shown in Fig 8A. The binding of these folded peptides to their respective target proteins was confirmed using SPR (Table 4 and S1 Data) and binding kinetics are exemplified by the high-affinity peptide 5ji4-CRD7-2 (see Fig 8B). Among seven selected ELISA-positive hits, all of them were successfully synthesized and in vitro folded with three disulfide bonds and five were proven to be validated binders by SPR (Table 4). Nine peptides selected from the NGS ranking were synthesized and folded with the expected number of disulfide bonds and five of them bound to their target with affinities in the μM range as determined by SPR (Table 4). In general, binding affinities for these SPR-validated initial hits are weak, with Kd values in the micromolar range and fast on- and off-rates. There are two exceptions with binding affinities in the nanomolar range.
(§2) The 5ji4 libraries were constructed following the Kunkel mutagenesis method and the solution panning protocol was followed as previously described. After four to five rounds of binding selection, while eluted pool was subjected to NGS analysis, individual phage clones were also picked and analyzed with phage spot ELISA. Positive clones were subjected to SANGER sequencing.

[2] = tested on: RSP02; assay: phage spot ELISA on RSP02; format: binding; settings: S3 Table sheet RSP02; for S/N: phage spot ELISA signal/noise; for ELISA: phage spot ELISA signal
From the text: as §1, §2

[3] = target: T1, CD8α-Fc (UniProt P01732 22-182); assay: SPR; Biacore S200, Fc-fusion target on Sensor Chip Protein A, peptide flowed, single-cycle kinetics, three-fold dilution series from approximately 100 μM, 25°C, 30 μl/min, HBS-EP with 5% DMSO; 1:1 binding (kinetic) model, or no binding seen; settings: both partners purified
T1 construct: CD8 alpha chain, bought as Fc fusion; captured on a Protein A sensor chip by its Fc; source: bought: R&D, #AVI10927
T1 sequence (P01732 22-182): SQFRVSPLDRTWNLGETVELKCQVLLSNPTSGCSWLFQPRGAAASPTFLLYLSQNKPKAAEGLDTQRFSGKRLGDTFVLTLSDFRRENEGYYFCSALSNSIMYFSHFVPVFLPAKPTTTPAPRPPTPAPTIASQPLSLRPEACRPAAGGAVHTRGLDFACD

[4] = target: T1, CD8α-Fc; assay: SPR; Biacore S200, Fc-fusion target on Sensor Chip Protein A, peptide flowed, single-cycle kinetics, three-fold dilution series from approximately 100 μM, 25°C, 30 μl/min, HBS-EP with 5% DMSO; steady-state equilibrium model; settings: both partners purified
[5] = target: VEGF_(8-109) (UniProt P15692); assay: ELISA; phage spot ELISA of individual phage clones after panning; clones with signal > 0.3 and signal/noise ratio > 2 counted as positive hits
[6] = target: VEGF_(8-109) (UniProt P15692); assay: SPR; Biacore S200, target on Series S Sensor Chip SA, peptide flowed, single-cycle kinetics, three-fold dilution series from approximately 100 μM, 25°C, 30 μl/min, HBS-EP with 5% DMSO; 1:1 binding (kinetic) model
[7] = S3 Table sheet CD8αβ-1 (panning campaign 1)
[8] = S3 Table sheet CD8αβ-2 (panning campaign 2)

Molecule “PCECDVHGETYTVSSSEEGTSVPTWLISLCRVHCG [CD8αβ-1 clone 2, phage clone, 5JI4 library, CD8αβ-1 panning]” has a S/N [1, 7] of 34.8 and an ELISA [1, 7] of 3.031.

“PCECLMIAVMLVRPSSEECERLCRKLGVTNCRVHCG [CD8αβ-2 clone 3, phage clone, 5JI4 library, CD8αβ-2 panning]” showed a S/N [1, 8] of 1.6 and an ELISA [1, 8] of 0.223.

For “PCECDYPVYHDDYKSSEECERLCRKLGVTNCRVHCG [CD8αβ-2 clone 1, phage clone, 5JI4 library, CD8αβ-2 panning]”, the S/N [1, 8] was 27.2 and the ELISA [1, 8] was 3.534.

“PCECGPYHDDMDKTSSEECERLCRKLGVTNCRVHCG [CD8αβ-2 clone 2, phage clone, 5JI4 library, CD8αβ-2 panning]” gave a S/N [1, 8] of 2.4 and an ELISA [1, 8] of 0.296.

“PCECTYKDDWQKGASSEECERLCRKLGVTNCRVHCG [RSP02 clone 1, phage clone, 5JI4 library, RSP02 panning]” showed a S/N [2] of 1.427 and an ELISA [2] of 0.204.

“PSECPNPPFEVRTWSSEECERLCRKLGVTNCVCG [CD8αβ-1 clone 1, phage clone, 5JI4 library, CD8αβ-1 panning]” was tested, and the S/N [1, 7] was 18.5 and the ELISA [1, 7] was 1.938.

With “PCECIVRWTTKQLESSEECERLCRKLGVTNCRVHCG [RSP02 clone 2, phage clone, 5JI4 library, RSP02 panning]” the S/N [2] was 1.515 and the ELISA [2] was 0.2.

B1: 5ji4-CD8-21 (peptide)
chain: PCECVWESFAHLPWSSEECERLCLNWLSSLCRVHCG
notes: clone from the 5JI4 scaffold phage libraries, picked by NGS ranking; free N- and C-termini; three disulfide bonds; source: synthetic peptide (CSBio), folded in vitro, HPLC purified
With B1 the Kd [3] was 6 ± 2.2 µM.

B2: 5ji4-CD8-2 (peptide)
chain: H-PCECVWESFAHLPWSSEECERLCRKLGVTNCVCG-OH
modifications: disulfide (positions not given here); also: three disulfide bonds, pairing not given here
Work on B2 yielded a Kd [3] of 4.2 ± 4.3 µM.

B3: 5ji4-CD8-20 (peptide)
chain: PCECDVNGETYTVSSSEECERLCVWWLSTVCRVPCG
notes: as for B1
Molecule B3 has a Kd [4] of 23 ± 7 µM.

In the case of PCECDVNVETYTVSSSEECKRLCWGFGQSDCRVHCG [5ji4-VEGF-3 displayed on M13 phage], the phage spot ELISA signal [5] is reported as 3.07 and the phage spot ELISA signal/noise (s/n) [5] is reported as 32.2.

Molecule PCECDVNVETYTVSSSEECKRLCWGFGQSDCRVHCG [5ji4-VEGF-3] has a Kd [6] of 0.12 µM.

B4: 5ji4-CD8-22 (peptide)
chain: PCECLVTPYKDDYKSSEECERLCVWWLSTVCRVPCG
notes: as for B1
Work on B4 yielded a Kd [4] of 76.3 ± 35.7 µM.

PCECFMYDILVGLASSEECERLCRKLGVTNCRVHCG [5ji4-VEGF-2 displayed on M13 phage] gave a phage spot ELISA signal [5] of 4.71 and a phage spot ELISA signal/noise (s/n) [5] of 44.5.

For PCECFMYDILVGLASSEECERLCRKLGVTNCRVHCG [5ji4-VEGF-2], the Kd [6] was 6.8 µM.
